Laboratory results as given in patent US8530474B2, “Substituted 6-(1-piperazinyl)-pyridazines as 5-HT6 receptor antagonists” (Janssen Pharmaceutica NV, priority 2008, dated 2013).
Counter-ions that a name gives are not always drawn.

Tests used:
[1] = molecular target: T1, human Serotonin 5-HT6 receptor (Homo sapiens, UniProt P50406); assay: In vitro binding affinity for human 5-HT6 receptor ([3H]LSD, membranes of transfected HEK cells); conditions: human 5-HT6, [3H]Lysergic acid diethylamide 2 nM, HEK cell membranes; read-out: pIC50 Values (5-HT6) (converted)
T1 construct: expressed in transfected cells; host or cells: HEK cells
T1 sequence (P50406 whole entry): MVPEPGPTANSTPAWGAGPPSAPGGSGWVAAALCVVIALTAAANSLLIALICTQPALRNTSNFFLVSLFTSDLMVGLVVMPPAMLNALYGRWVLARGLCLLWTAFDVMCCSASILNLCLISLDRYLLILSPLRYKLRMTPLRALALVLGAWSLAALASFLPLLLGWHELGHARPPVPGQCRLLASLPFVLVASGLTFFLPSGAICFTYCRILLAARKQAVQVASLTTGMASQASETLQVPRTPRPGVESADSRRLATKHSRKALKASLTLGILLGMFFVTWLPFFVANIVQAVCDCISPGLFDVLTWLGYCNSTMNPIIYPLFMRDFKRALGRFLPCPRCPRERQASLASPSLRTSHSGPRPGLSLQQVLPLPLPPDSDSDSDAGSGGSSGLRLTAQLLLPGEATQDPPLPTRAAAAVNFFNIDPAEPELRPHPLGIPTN
Protocol: D. Pharmacology In vitro Binding Affinity for Human 5-HT6 Receptor
Frozen membranes of human Serotonin 5-HT6 receptor-transfected HEK cells were thawed, briefly homogenized using an Ultra-Turrax T25 homogeniser and diluted in 50 mM Tris-HCl assay buffer containing 10 mM MgCl2, 1 mM EDTA and 10 μM Pargyline (adjusted to pH 7.4 with HCl) to an appropriate protein concentration optimized for specific and non-specific binding. Radioligand [^3H]Lysergic acid diethylamide (Perkin Elmer, specific activity ˜80 Ci/mmol) was diluted in assay buffer at a concentration of 20 nM. Radioligand (20 μl), along with 40 μl of either the 10% DMSO control, Methiothepine (10^−5M final concentration for measurement of non specific binding), or compound of interest, was then incubated with 70 μl of the prepared membrane solution and 70 μl of WGA (wheat germ agglutinin) coated PVT (polyvinyltoluidene) beads (0.25 mg/well final concentration). The final concentration of radioligand per well was 2 nM. After shaking for 24 h. at RT, plates were counted in a Topcount™ scintillation counter. Percentage specific binding and competition binding curves were calculated using S-Plus software (Insightful).

human H3 receptor [2] = molecular target: T2, human H3 receptor (Homo sapiens, UniProt Q9Y5N1); assay: In vitro binding assay for human H3 receptor (125I-iodoproxyfan, SK-N-MC cell membranes); conditions: iodoproxifan 1 nM, Ki converted from IC50
T2 construct: expressed in transfected cells
T2 sequence (Q9Y5N1 whole entry): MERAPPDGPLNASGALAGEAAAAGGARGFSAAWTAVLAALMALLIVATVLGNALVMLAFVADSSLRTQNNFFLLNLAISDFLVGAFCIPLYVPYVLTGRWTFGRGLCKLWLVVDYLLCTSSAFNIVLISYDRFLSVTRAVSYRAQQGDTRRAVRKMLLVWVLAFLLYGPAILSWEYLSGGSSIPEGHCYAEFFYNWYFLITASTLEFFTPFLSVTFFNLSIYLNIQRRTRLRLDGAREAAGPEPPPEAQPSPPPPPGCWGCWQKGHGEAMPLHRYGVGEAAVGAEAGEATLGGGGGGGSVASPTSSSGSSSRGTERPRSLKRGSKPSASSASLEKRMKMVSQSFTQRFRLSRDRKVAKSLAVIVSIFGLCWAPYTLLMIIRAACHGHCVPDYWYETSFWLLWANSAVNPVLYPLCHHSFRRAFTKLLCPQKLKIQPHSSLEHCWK
Protocol: In vitro Binding Assay for Human H3 Receptor
Briefly, cell pellets from SK-N-MC cells expressing the human H3 receptor were homogenized in 50 mM Tris-HCl/5 mM EDTA and recentrifuged at 30000 g for 30 min. Pellets were rehomogenized in 50 mM Tris/5 mM EDTA (pH 7.4). Membranes were incubated for 1 h at 25° C. with ^125I-iodoproxyfan diluted with cold iodoproxifan in 50 mM Tris-HCl/5 mM EDTA. The final total iodoproxifan concentration in the reactions is 1 nM. The cold iodoproxifan is included at 0.975 nM and the ^125I-iodoproxyfan is included at 0.025 nM final concentration. The reactions were terminated by filtration thru GF/B plates (pretreated with 0.3% polyethylenimine) on the cell harvester. The plates were washed 5 times with buffer. Nonspecific binding was defined in the presence of 100 μM histamine Inhibitory concentration (responsible for 50% inhibition of maximal effect, IC50) values were determined by a single site curve-fitting program (GraphPad, San Diego, Calif.) and converted to Ki values based on a ^125I-iodoproxyfan dissociation constant (Kd) of 1 nM.

human H3 receptor [3] = molecular target: T2, human H3 receptor; conditions: used to convert IC50 to Ki, read-out: dissociation constant (Kd) of radioligand; cited from earlier work

Fc1ccc(COc2cc(N3CCNCC3)nnc2C(F)(F)F)cc1 [Co. No. 15, 4-[(4-fluorophenyl)methoxy]-6-(1-piperazinyl)-3-(trifluoromethyl)-pyridazine]
IC50 [1]: 0.398 µM | Ki (human H3 receptor [2]): > 10 µM | melting point: 142.1 °C

Fc1ccc(Nc2cc(N3CCNCC3)nnc2C(F)(F)F)cc1 [Co. No. 16, N-(4-fluorophenyl)-6-(1-piperazinyl)-3-(trifluoromethyl)-4-pyridazinamine.2.5HCl .0.5H2O]
Ki (human H3 receptor [2]): > 10 µM

FC(F)(F)c1nnc(N2CCN(Cc3ccncc3)CC2)cc1/C=C/c1ccccc1 [Co. No. 17, 4-[(E)-2-phenylethenyl]-6-[4-(4-pyridinylmethyl)-1-piperazinyl]-3-(trifluoromethyl)-pyridazine]
IC50 [1]: 1.26 µM | Ki (human H3 receptor [2]): > 10 µM

OC(c1ccccc1)c1cc(N2CCNCC2)nnc1C(F)(F)F (stereo not drawn) (as salt: HCl) [Co. No. 5, alpha-phenyl-6-(1-piperazinyl)-3-(trifluoromethyl)-4-pyridazinemethanol]
melting point: 199.7 °C

Ic1ccc(COCCCc2cnc[nH]2)cc1 [^125I-iodoproxyfan]
Kd (human H3 receptor [3]): 0.001 µM

Fc1ccc(/C=C\c2cc(N3CCNCC3)nnc2C(F)(F)F)cc1 [Co. No. 7, 4-[(Z)-2-(4-fluorophenyl)ethenyl]-6-(1-piperazinyl)-3-(trifluoromethyl)-pyridazine]
IC50 [1]: 0.158 µM | Ki (human H3 receptor [2]): > 10 µM

Fc1ccc(C#Cc2cc(N3CCNCC3)nnc2C(F)(F)F)cc1 [Co. No. 9, 4-[(4-fluorophenyl)ethynyl]-6-(1-piperazinyl)-3-(trifluoromethyl)-pyridazine]
IC50 [1]: 1.58 µM | Ki (human H3 receptor [2]): > 10 µM | melting point: 251.6 °C

Fc1ccc(Nc2cc(N3CCNCC3)nnc2C(F)(F)F)cc1 [Co. No. 2, N-(4-fluorophenyl)-6-(1-piperazinyl)-3-(trifluoromethyl)-4-pyridazinamine]
IC50 [1]: 0.0631 µM

CN1CCN(c2cc(/C=C/c3ccccc3)c(C(F)(F)F)nn2)CC1 [Co. No. 11, 6-(4-methyl-1-piperazinyl)-4-[(E)-2-phenylethenyl]-3-(trifluoromethyl)-pyridazine]
IC50 [1]: 0.398 µM | Ki (human H3 receptor [2]): > 10 µM | melting point: 135.8 °C

FC(F)(F)c1nnc(N2CCN(Cc3ccccn3)CC2)cc1/C=C/c1ccccc1 [Co. No. 18, 4-[(E)-2-phenylethenyl]-6-[4-(2-pyridinylmethyl)-1-piperazinyl]-3-(trifluoromethyl)-pyridazine]
IC50 [1]: 6.31 µM | Ki (human H3 receptor [2]): > 10 µM | melting point: 121.4 °C

O=C(c1ccccc1)c1cc(N2CCNCC2)nnc1C(F)(F)F [Co. No. 4, phenyl[6-(1-piperazinyl)-3-(trifluoromethyl)-4-pyridazinyl]-methanone]
IC50 [1]: 0.126 µM | Ki (human H3 receptor [2]): > 10 µM | melting point: 289.5 °C

FC(F)(F)c1nnc(N2CCN(Cc3ccncc3)CC2)cc1/C=C/c1ccccc1 (as salt: trifluoroacetate) [Co. No. 17, 4-[(E)-2-phenylethenyl]-6-[4-(4-pyridinylmethyl)-1-piperazinyl]-3-(trifluoromethyl)-pyridazine]
melting point: 163.9 °C

Fc1ccc(/C=C/c2cc(N3CCNCC3)nnc2C(F)(F)F)cc1 [Co. No. 8, 4-[(E)-2-(4-fluorophenyl)ethenyl]-6-(1-piperazinyl)-3-(trifluoromethyl)-pyridazine]
IC50 [1]: 0.0631 µM | Ki (human H3 receptor [2]): > 10 µM | melting point: 180.6 °C

O=S(=O)(c1ccccc1)c1cc(N2CCNCC2)nnc1C(F)(F)F [Co. No. 6, 4-(phenylsulfonyl)-6-(1-piperazinyl)-3-(trifluoromethyl)-pyridazine]
IC50 [1]: 0.251 µM | Ki (human H3 receptor [2]): > 10 µM | melting point: 180.3 °C

FC(F)(F)c1nnc(N2CCNCC2)cc1Cc1ccccc1 [Co. No. 3, 4-(phenylmethyl)-6-(1-piperazinyl)-3-(trifluoromethyl)-pyridazine]
IC50 [1]: 0.126 µM | Ki (human H3 receptor [2]): > 10 µM | melting point: 133.8 °C

Fc1ccc(CNc2cc(N3CCNCC3)nnc2C(F)(F)F)cc1 [Co. No. 14, N-[(4-fluorophenyl)methyl]-6-(1-piperazinyl)-3-(trifluoromethyl)-4-pyridazinamine]
IC50 [1]: 0.631 µM | Ki (human H3 receptor [2]): > 10 µM

Fc1ccc(Oc2cc(N3CCNCC3)nnc2C(F)(F)F)cc1 [Co. No. 1, 4-(4-fluorophenoxy)-6-(1-piperazinyl)-3-(trifluoromethyl)-pyridazine]
IC50 [1]: 0.251 µM | Ki (human H3 receptor [2]): 5 µM | melting point: 132.5 °C

CN1CCN(c2cc(C(=O)c3ccccc3)c(C(F)(F)F)nn2)CC1 [Co. No. 13, [6-(4-methyl-1-piperazinyl)-3-(trifluoromethyl)-4-pyridazinyl]phenyl-methanone]
IC50 [1]: 0.158 µM | Ki (human H3 receptor [2]): > 10 µM | melting point: 136.3 °C

OC(c1ccccc1)c1cc(N2CCNCC2)nnc1C(F)(F)F (stereo not drawn) [Co. No. 5, alpha-phenyl-6-(1-piperazinyl)-3-(trifluoromethyl)-4-pyridazinemethanol]
IC50 [1]: 0.631 µM | Ki (human H3 receptor [2]): > 10 µM

Fc1ccc(Nc2cc(N3CCNCC3)nnc2C(F)(F)F)cc1 (as salt: HCl) (hydrate or solvate) [Co. No. 16, N-(4-fluorophenyl)-6-(1-piperazinyl)-3-(trifluoromethyl)-4-pyridazinamine.2.5HCl .0.5H2O]
melting point: > 300 °C
